Patent US10519162B2, “6,7-dihydropyrazolo[1,5-α]pyrazin-4(5H)-one compounds and their use as negative allosteric modulators of mGluR2 receptors” (Janssen Pharmaceutica NV, priority 2014, dated 2019)

What was measured:
human mGlu2 receptor = biological target: T1, human mGlu2 receptor (Homo sapiens, UniProt Q14416); experiment: [35S]GTPγS binding assay (mGluR2 negative allosteric modulation, glutamate ~EC80 60 μM); type: biochemical; conditions: for Emax: read-out: GTPγS-hmGluR2 anGT Emax; for IC50: membranes from CHO cells transfected with human mGlu2 receptor, glutamate ~EC80 (60 μM), pIC50 = −log IC50 (M), read-out: GTPγS-hmGluR2 anGT pIC50 (converted)
T1 construct: expressed in transfected cells; host or cells: CHO cells
Experimental: 1) [^35S]GTPγS Binding Assay
[^35S]GTPγS Binding Assay
Total reaction volume was 200 μl. […] Membrane-bound radioactivity was counted in a Topcount.

rats = experiment: Reversal of the effect of the mGluR2 PAM JNJ-42153605-induced inhibition of scopolamine-induced hyperlocomotion (SCOP JNJ-42153605); type: in vivo, rat; conditions: for ED50: Rattus norvegicus, PO (oral route), rats, reversal criterion total distance >1500 cm
Experimental: 2) Reversal of the Effect of the mGluR2 PAM JNJ-42153605-Induced Inhibition of Scopolamine-Induced Hyperlocomotion Apparatus
Motor activity was measured in microprocessor-based motor activity arenas (closed gray PVC cylinders with a height of 39 cm and a diameter of 31 cm). Each arena was placed on an infrared LED (8×8 LEDs) lit box (white PVC squared box; 40×40 cm^2; height 12.5 cm. An infrared-sensitive tube camera and a white light source were mounted to the ceiling above the observation chamber to track the animal. The total distance traveled (cm) was recorded and analyzed using the Noldus Ethovision XT Video Tracking System (Version 7.0.418; Noldus, Wageningen, The Netherlands). The intensity of the light within the activity cages (measured in the centre at the level of the floor) ranged between 4 and 8 LUX.
The rats were pretreated with test compound or vehicle at 60 min before the start of the activity recordings and placed into individual cages. The rats were challenged with JNJ-42153605 (3-(cyclopropylmethyl)-7-(4-phenylpiperidin-1-yl)-8-(trifluoromethyl)[1,2,4]triazolo[4,3-a]pyridine; WO2010/130424; Cid et al. J. Med. Chem. 2012, 55, 8770-8789) (20 mg/kg, i.v.) 30 min before the start of the activity recording combined with scopolamine (0.16 mg/kg, i.v.) just before the start of the activity measurements. Immediately after the injection of scopolamine, the rats were placed into the activity monitors and total distance travelled over the first 30 min was measured.
Solvent-Pretreated Control Rats.
Animals receiving the combination of JNJ-42153605 and scopolamine (n=433) almost always travelled a distance of less than 1500 cm (<1500 cm) (only 2.5% of the control rats travelled a distance of more than 1500 cm (>1500 cm)). On the other hand, animals challenged with scopolamine alone (n=215) always travelled a total distance of more than 1500 cm (>1500 cm) and almost always (in 95.8% of the rats) a distance of more than 4400 cm (>4400 cm). […] For reversal of the inhibitory effect of JNJ-42153605 on the scopolamine-induced hyperlocomotion, the following all-or-none criteria were adopted: (1) reversal: total distance >1500 cm.

[1] = maximal % inhibition relative to the control glutamate response (EC80 glutamate)
[2] = historical solvent-pretreated control rats, first 30 min

T1 sequence (Q14416 19-872): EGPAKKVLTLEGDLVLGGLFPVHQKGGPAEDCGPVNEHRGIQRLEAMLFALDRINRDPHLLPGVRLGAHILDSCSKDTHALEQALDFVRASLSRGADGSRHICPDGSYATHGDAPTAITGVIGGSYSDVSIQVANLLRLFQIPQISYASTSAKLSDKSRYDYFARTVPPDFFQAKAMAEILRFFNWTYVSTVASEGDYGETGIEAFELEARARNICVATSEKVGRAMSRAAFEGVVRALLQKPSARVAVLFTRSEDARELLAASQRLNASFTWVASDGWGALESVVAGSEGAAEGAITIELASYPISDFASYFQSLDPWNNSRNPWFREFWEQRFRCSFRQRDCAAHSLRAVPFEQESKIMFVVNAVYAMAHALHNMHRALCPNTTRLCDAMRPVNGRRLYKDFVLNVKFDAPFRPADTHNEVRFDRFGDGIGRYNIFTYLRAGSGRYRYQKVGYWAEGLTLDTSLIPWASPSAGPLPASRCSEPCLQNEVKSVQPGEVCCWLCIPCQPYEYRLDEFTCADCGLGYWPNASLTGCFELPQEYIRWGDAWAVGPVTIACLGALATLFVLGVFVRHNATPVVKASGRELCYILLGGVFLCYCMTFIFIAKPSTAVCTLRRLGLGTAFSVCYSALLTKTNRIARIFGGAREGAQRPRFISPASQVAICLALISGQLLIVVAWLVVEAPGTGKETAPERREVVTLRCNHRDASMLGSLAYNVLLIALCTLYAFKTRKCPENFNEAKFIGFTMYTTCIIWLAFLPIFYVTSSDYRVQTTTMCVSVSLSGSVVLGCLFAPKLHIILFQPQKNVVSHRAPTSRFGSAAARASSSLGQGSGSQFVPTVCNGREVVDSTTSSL

Compound	melting point [°C]	Emax (human mGlu2 receptor; [1]) [%]	IC50 (human mGlu2 receptor) [M]	GTPγS-hmGluR2 anGT Emax (human mGlu2 receptor; [1]) [%]	ED50 (rats) [mg/kg]	Rats with total distance >1500 cm (%) (rats; [2])	Rats with total distance >4400 cm (%) (rats; [2])	Total distance travelled, median (cm) (rats; historical solvent-pretreated control rats, first 30 min, scopolamine 0.16 mg/kg i.v., JNJ-42153605 20 mg/kg i.v.)
COc1cc(N2C[C@H](C)n3ncc(NC(=O)c4ccc(N)nc4)c3C2=O)ccc1C(F)(F)F [Co. No. 38]	179.66	109	9.12e-09	–	> 2.5	–	–	–
Cc1cccc(C(=O)Nc2cnn3c2C(=O)N(c2ccc(C(F)(F)F)cc2)C[C@@H]3C)n1 [Co. No. 34]	214.97	116	8.32e-09	–	> 2.5	–	–	–
C[C@H]1CN(c2ccc(C(F)(F)F)cc2)C(=O)c2c(NC(=O)c3cccc(F)c3)cnn21 [Co. No. 14]	161.84	102	2.75e-09	–	> 2.5	–	–	–
C[C@H]1CN(c2ccc(C(F)(F)F)cc2)C(=O)c2c(NC(=O)c3nccs3)cnn21 [Co. No. 15]	213.94	111	3.24e-09	–	> 2.5	–	–	–
C[C@H]1CN(c2ccc(C(F)(F)F)cc2)C(=O)c2c(NC(=O)c3cnccn3)cnn21 [Co. No. 35]	219.91	112	8.13e-09	–	1.26	–	–	–
CN1[C@@H]2C[C@@H](OC(=O)[C@H](CO)c3ccccc3)C[C@H]1[C@@H]1O[C@@H]12 [Scopolamine, scopolamine, reference compound]	–	–	–	–	–	100	95.8	7246
C[C@H]1CN(c2ccc(Cl)c(OC(F)F)c2)C(=O)c2c(NC(=O)c3ccc(N)nc3)cnn21 [Co. No. 18]	–	117	4.27e-09	–	> 2.5	–	–	–
C[C@H]1CN(c2ccc(C(F)(F)F)cc2)C(=O)c2c(NC(=O)c3cnc(N)s3)cnn21 [Co. No. 74, 2-Amino-N-[(7S)-7-methyl-4-oxo-5-[4-(trifluoromethyl)phenyl]-6,7-dihydropyrazolo[1,5-a]pyrazin-3-yl]thiazole-5-carboxamide]	283.48	113	3.39e-08	–	–	–	–	–
COCC1CN(c2ccc(C(F)(F)F)cc2)C(=O)c2c(NC(=O)c3ccc(N)nc3)cnn21 (single isomer, unassigned) [Co. No. 96]	225.83	95	1.45e-06	–	–	–	–	–
COc1ccc(C(=O)Nc2cnn3c2C(=O)N(c2ccc(C(F)(F)F)cc2)C[C@@H]3C)c(F)c1 [Co. No. 44]	214.58	115	1.12e-08	–	–	–	–	–
COc1cc(C(=O)Nc2cnn3c2C(=O)N(c2ccc(C(F)(F)F)cc2)C[C@@H]3C)ccc1F [Co. No. 51]	140.98	113	1.45e-08	–	–	–	–	–
C[C@H]1CN(c2ccc(C(F)(F)F)cc2)C(=O)c2c(NC(=O)c3ccc(N)cn3)cnn21 [Co. No. 68, 5-Amino-N-[(7S)-7-methyl-4-oxo-5-[4-(trifluoromethyl)phenyl]-6,7-dihydropyrazolo[1,5-a]pyrazin-3-yl]pyridine-2-carboxamide]	289.4	107	2.82e-08	–	–	–	–	–
COc1c(F)cccc1C(=O)Nc1cnn2c1C(=O)N(c1ccc(C(F)(F)F)cc1)C[C@@H]2C [Co. No. 19]	170.98	117	4.37e-09	–	–	–	–	–
COc1cc(F)cc(C(=O)Nc2cnn3c2C(=O)N(c2ccc(C(F)(F)F)cc2)C[C@@H]3C)c1 [Co. No. 17]	136.53	114	3.72e-09	–	–	–	–	–
COc1ccnc(C(=O)Nc2cnn3c2C(=O)N(c2ccc(C(F)(F)F)cc2)C[C@@H]3C)c1 [Co. No. 60]	227.69	111	2.45e-08	–	–	–	–	–
C[C@H]1CN(c2ccc(C(F)(F)F)cc2)C(=O)c2c(NC(=O)c3ccnc(N)c3)cnn21 [Co. No. 50]	225.63	104	1.38e-08	–	–	–	–	–
COc1cccc(C(=O)Nc2cnn3c2C(=O)N(c2ccc(C(F)(F)F)c(OC)n2)C[C@@H]3C)c1 [Co. No. 56]	160.66	107	2.04e-08	–	–	–	–	–
COCc1ccccc1C(=O)Nc1cnn2c1C(=O)N(c1ccc(C(F)(F)F)cc1)C[C@@H]2C [Co. No. 78]	88.18	105	5.62e-08	–	–	–	–	–
COc1ccc(C(=O)Nc2cnn3c2C(=O)N(c2ccc(C(F)(F)F)c(OC)n2)C[C@@H]3C)cc1 [Co. No. 77]	194.9	103	7.76e-08	–	–	–	–	–
C[C@H]1CN(c2ccc(Cl)cc2)C(=O)c2c(NC(=O)c3ccc(N)nc3)cnn21 [Co. No. 36]	–	110	8.91e-09	–	0.5	–	–	–
COc1ccc(F)cc1C(=O)Nc1cnn2c1C(=O)N(c1ccc(C(F)(F)F)cc1)C[C@@H]2C [Co. No. 10]	204.35	113	2.57e-09	–	–	–	–	–

Second part, led by results:

melting point [°C]	Emax (human mGlu2 receptor; [1]) [%]	IC50 (human mGlu2 receptor) [M]	GTPγS-hmGluR2 anGT Emax (human mGlu2 receptor; [1]) [%]	Compound	ED50 (rats) [mg/kg]	Rats with total distance >1500 cm (%) (rats; [2])	Rats with total distance >4400 cm (%) (rats; [2])	Total distance travelled, median (cm) (rats; historical solvent-pretreated control rats, first 30 min, scopolamine 0.16 mg/kg i.v., JNJ-42153605 20 mg/kg i.v.)
143.17	106	1.35e-08	–	COc1cncc(C(=O)Nc2cnn3c2C(=O)N(c2ccc(C(F)(F)F)c(F)c2)C[C@@H]3C)c1 [Co. No. 153]	> 0.63	–	–	–
128.97	106	4.68e-09	–	Cc1cc(C(=O)Nc2cnn3c2C(=O)N(c2ccc(C(F)(F)F)c(C)c2)C[C@@H]3C)ccn1 [Co. No. 112]	> 0.63	–	–	–
217.95	107	2.34e-09	–	Cc1cc(N2C[C@H](C)n3ncc(NC(=O)c4ccccn4)c3C2=O)ccc1C(F)(F)F [Co. No. 110]	> 0.63	–	–	–
155.04	109	2.63e-09	–	C[C@H]1CN(c2ccc(Cl)c(Cl)c2)C(=O)c2c(NC(=O)c3ccccn3)cnn21 [Co. No. 105]	> 0.63	–	–	–
185.23	114	2.24e-09	–	COc1cncc(C(=O)Nc2cnn3c2C(=O)N(c2ccc(C(F)(F)F)cc2)C[C@@H]3C)n1 [Co. No. 183]	0.318	–	–	–
248.21	106	2.88e-09	–	COc1ccnc(N)c1C(=O)Nc1cnn2c1C(=O)N(c1ccc(C(F)(F)F)cc1)C[C@@H]2C (racemic) [Co. No. 193]	> 0.63	–	–	–
–	108	4.9e-09	–	Cc1cnc(N)c(C(=O)Nc2cnn3c2C(=O)N(c2ccc(Cl)cc2)C[C@@H]3C)c1 [Co. No. 201]	> 0.63	–	–	–
182.69	–	2.4e-08	113	Cc1nccc(C(=O)Nc2cnn3c2C(=O)N(c2ccc(C(F)(F)F)cc2)C[C@@H]3C)c1C [Co. No. 156]	–	–	–	–
240.46	115	2.04e-09	–	C[C@H]1CN(c2ccc(C(F)(F)F)cc2)C(=O)c2c(NC(=O)c3cccc(O)c3)cnn21 [Co. No. 144]	–	–	–	–
–	112	5.25e-10	–	C[C@H]1CN(c2ccc(C(F)(F)F)c(Cl)c2)C(=O)c2c(NC(=O)c3cccnc3NCCO)cnn21 (racemic) [Co. No. 214]	0.32	–	–	–
149.93	106	2.95e-08	–	COCc1cncc(C(=O)Nc2cnn3c2C(=O)N(c2ccc(C(F)(F)F)cc2)C[C@@H]3C)c1 [Co. No. 138]	–	–	–	–
170.75	108	3.02e-09	–	COCc1cncc(C(=O)Nc2cnn3c2C(=O)N(c2ccc(C(F)(F)F)c(Cl)c2)C[C@@H]3C)c1 [Co. No. 139]	–	–	–	–
192.47	106	1.66e-09	–	Cc1cc(C(=O)Nc2cnn3c2C(=O)N(c2ccc(C(F)(F)F)c(Cl)c2)C[C@@H]3C)cc(N)n1 [Co. No. 174]	–	–	–	–
265	106	6.03e-09	–	CC(=O)Nc1ccc(C(=O)Nc2cnn3c2C(=O)N(c2ccc(C(F)(F)F)cc2)C[C@@H]3C)cn1 [Co. No. 159, 6-acetamido-N-[(7S)-7-methyl-4-oxo-5-[4-(trifluoromethyl)phenyl]-6,7-dihydropyrazolo[1,5-a]pyrazin-3-yl]pyridine-3-carboxamide]	–	–	–	–
